A word on the AC50: it is the concentration at which the activity in the assay is half-maximal.

From ChEMBL document CHEMBL1201862, “PubChem BioAssay data set” (2004) come the findings set out here.

Calls of active or inactive are those of the source.

In one data set the target is Cytochrome P450 2C19 (Homo sapiens, UniProt P33261). Nature of the data set: Cytochrome panel assay with activity outcomes. Panel member name: p450-cyp2c19 Compounds with AC50 equal or less than 10 uM are considered active. The format is functional.
Cytochrome P450 2C19, sequence (P33261 whole entry): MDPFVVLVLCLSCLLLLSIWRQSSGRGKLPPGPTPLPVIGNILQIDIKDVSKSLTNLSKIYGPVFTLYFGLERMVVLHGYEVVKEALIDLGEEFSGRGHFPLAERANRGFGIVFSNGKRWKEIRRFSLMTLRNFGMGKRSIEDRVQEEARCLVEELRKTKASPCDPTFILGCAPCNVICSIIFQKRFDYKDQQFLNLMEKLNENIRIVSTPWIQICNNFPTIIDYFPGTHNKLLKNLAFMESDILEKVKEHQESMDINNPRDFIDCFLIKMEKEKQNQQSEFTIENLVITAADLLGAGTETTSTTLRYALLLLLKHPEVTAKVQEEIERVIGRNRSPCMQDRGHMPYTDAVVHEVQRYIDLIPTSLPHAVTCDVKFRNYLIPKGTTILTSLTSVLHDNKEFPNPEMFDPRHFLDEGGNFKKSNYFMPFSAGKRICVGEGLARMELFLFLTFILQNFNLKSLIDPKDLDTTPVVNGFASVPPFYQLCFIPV
Data set [1] is described as follows: Luminescence Cell-Based Dose Retest to Confirm Inhibitors of Cancer Stem Cells. [Related pubchem assays (depositor defined):AID2717, AID2721]. The format is functional. The note with it: Homo sapiens.
A further data set concerns the target Cytochrome P450 3A4 (Homo sapiens, UniProt P08684).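 Also: CYP3A4 tested as one member of a cytochrome P450 panel screen.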
For the next data set, the target named is Cytochrome P450 2C9 (Homo sapiens, UniProt P11712).
Cytochrome P450 2C9, sequence (P11712 whole entry): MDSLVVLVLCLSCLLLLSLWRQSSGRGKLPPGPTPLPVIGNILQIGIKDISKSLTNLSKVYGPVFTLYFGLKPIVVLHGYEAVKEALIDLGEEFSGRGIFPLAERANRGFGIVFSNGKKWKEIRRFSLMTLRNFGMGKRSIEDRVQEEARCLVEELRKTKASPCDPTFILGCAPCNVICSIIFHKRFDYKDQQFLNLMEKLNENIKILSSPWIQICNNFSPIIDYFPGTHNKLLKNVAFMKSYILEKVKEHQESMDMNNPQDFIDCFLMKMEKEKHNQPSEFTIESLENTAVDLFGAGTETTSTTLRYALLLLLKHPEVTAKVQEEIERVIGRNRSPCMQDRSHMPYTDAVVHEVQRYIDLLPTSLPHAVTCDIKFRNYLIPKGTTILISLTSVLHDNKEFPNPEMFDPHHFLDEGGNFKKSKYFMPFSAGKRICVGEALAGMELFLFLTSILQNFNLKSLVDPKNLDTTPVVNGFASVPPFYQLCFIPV

Cytochrome P450 3A4, sequence (P08684 whole entry): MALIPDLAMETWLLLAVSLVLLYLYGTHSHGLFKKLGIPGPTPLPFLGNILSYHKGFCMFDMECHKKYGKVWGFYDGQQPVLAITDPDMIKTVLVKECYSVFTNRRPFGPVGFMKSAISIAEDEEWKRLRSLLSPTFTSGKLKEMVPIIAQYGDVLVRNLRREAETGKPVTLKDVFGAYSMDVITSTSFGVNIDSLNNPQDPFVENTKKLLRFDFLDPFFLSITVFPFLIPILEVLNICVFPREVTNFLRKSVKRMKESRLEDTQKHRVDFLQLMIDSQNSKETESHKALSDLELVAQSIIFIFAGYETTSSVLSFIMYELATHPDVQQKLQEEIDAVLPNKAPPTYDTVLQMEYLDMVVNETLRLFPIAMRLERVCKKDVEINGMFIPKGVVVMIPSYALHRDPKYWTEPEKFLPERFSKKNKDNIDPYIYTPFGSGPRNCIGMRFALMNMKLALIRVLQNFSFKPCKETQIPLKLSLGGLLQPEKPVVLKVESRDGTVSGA

As to `N#C/C(=C\c1ccccc1)c1nc2ccc[nH]c-2n1`, the concentration at half-maximal activity (AC50) on Cytochrome P450 2C19 (read-out: AC50) was 28.2 µM (inconclusive).

In the case of `S=C(Nc1ccc(Oc2ccccc2)cc1)NC1CCCCCC1`, the AC50 in data set [1] was 5.01 µM (active).

Turning to `Cc1noc(C)c1COc1cccc(C(=O)Nc2ccc(OCc3ccccc3)cc2)c1`, the AC50 in data set [1] is 10.8 µM (active).

Take `Cc1ccc(SC[C@H](C)CN2CC[C@H](C(C)(C)C)CCC2=O)cc1`: the AC50 in data set [1] was 1.56 µM (active).

In the case of `CCCOc1c(OC)cccc1C1CC(=O)Nc2cc3c(cc21)OCCO3` (stereo unspecified), the AC50 in data set [1] is 1.85 µM (active).

Consider `COc1ccccc1CNc1nc(-c2ccccc2CN(C)C)nc2ccccc12`, for which the AC50 at Cytochrome P450 2C19 (read-out: AC50) is 25.1 µM (inconclusive).

As for `O=C1NC(=O)N(CCc2ccc(F)cc2)C(=O)/C1=C/NCCCN1CCOCC1`, the AC50 entry at Cytochrome P450 2C19 is “inconclusive”.

Turning to `O=c1c(CCc2ccccc2)nc2cnc(Oc3ccccc3)nc2n1C[C@H]1CCCO1`, the AC50 at Cytochrome P450 2C19 (read-out: AC50) was 39.8 µM (inconclusive); at Cytochrome P450 3A4, 0.0794 µM (inconclusive).

For the compound `Cc1cc(C(F)F)n2nc(C(=O)Nc3sc4c(c3C#N)CCC(C)C4)nc2n1` (stereo unspecified), the values for the AC50 on Cytochrome P450 2C19 (read-out: AC50) and on Cytochrome P450 3A4 were 31.6 µM (inconclusive) and 15.8 µM (inconclusive), respectively.

As for `C[C@@H]1CC=C[C@H]2[C@H]1C(=O)N(Cc1ccccc1)[C@H]2c1ccc2ccccc2c1`, the AC50 in data set [1] is 5.69 µM (active).

As for `COc1ccc(OC)c(Nc2c3ccccc3nc3ccccc23)c1`, the AC50 in data set [1] was 3.78 µM (active).

On to `CC(C)c1nc2ccccn2c1NC1CCCCC1`, for which the AC50 was 39.8 µM (inconclusive) on Cytochrome P450 2C9 and 22.4 µM (inconclusive) on Cytochrome P450 2C19 (read-out: AC50).

Consider `CC(C)=CCC/C(C)=C/CO/N=C1/C[C@@H](O)[C@@H](O)[C@@H]2[C@@H]3C(=O)N(Cc4ccccc4)C(=O)[C@H]3CC[C@@H]12`, for which the AC50 result at Cytochrome P450 2C19 is recorded as “inconclusive”.

On to `O=C(O)C1C2CCC(C2)C1C(=O)NCc1ccco1` (stereo unspecified), for which the AC50 at Cytochrome P450 2C19 (read-out: AC50) was 7.94 µM (inconclusive).

Take `CCNc1ncc2nc(CCc3ccccc3)c(=O)n(-c3ccc(OC)cc3)c2n1`: the AC50 on Cytochrome P450 2C9 is 15.8 µM (inconclusive); on Cytochrome P450 2C19 (read-out: AC50), 39.8 µM (inconclusive).

Take `COCCCN1Cc2ccccc2C1=N`: the AC50 at Cytochrome P450 2C9 is 11.2 µM (inconclusive); on Cytochrome P450 2C19 (read-out: AC50), 39.8 µM (inconclusive).

Turning to `CCCc1nnc(SCC(=O)N2CCCCC2C)n1CCCOC` (stereo unspecified), the AC50 at Cytochrome P450 2C9 was 0.0251 µM (inconclusive); on Cytochrome P450 2C19 (read-out: AC50), 39.8 µM (inconclusive); on Cytochrome P450 3A4 it was 15.8 µM (inconclusive).

Consider `CCOc1ccccc1NC(=O)CCC(=O)O`, for which, at Cytochrome P450 2C19 (read-out: AC50), the AC50 is 3.16 µM (inconclusive).

`CN1CCC[C@@H]1c1cccnc1.Cc1ccc(C(=O)O[C@@H](C(=O)O)[C@@H](OC(=O)c2ccc(C)cc2)C(=O)O)cc1`: the AC50 entry at Cytochrome P450 2C19 is “inconclusive”.
